Where a name gives a salt, the structure may show the parent alone. Values belong to the compound of their own block, whether it stands above or below them.
How the values were obtained:
Type in all cases: in vivo
[1] = test system: α-glucosidase; assay: Glc-[U-13C]Glc breath test; settings: rats, n=2
Description: The pharmacological effect of acarbose is the inhibition of α-glucosidase. Glc-[U-^13C]Glc (see Production Example 2) which is a substrate for α-glucosidase is provided as a pharmacological effect diagnostic reagent and a screening reagent.

[2] = biological target: T1, DOPA decarboxylase (Rattus norvegicus, UniProt P14173); assay: [1-13C]DOPA breath test; settings: rats
T1 construct: from tissue; host or cells: living rat (whole-animal breath test)
T1 sequence (P14173 1-480): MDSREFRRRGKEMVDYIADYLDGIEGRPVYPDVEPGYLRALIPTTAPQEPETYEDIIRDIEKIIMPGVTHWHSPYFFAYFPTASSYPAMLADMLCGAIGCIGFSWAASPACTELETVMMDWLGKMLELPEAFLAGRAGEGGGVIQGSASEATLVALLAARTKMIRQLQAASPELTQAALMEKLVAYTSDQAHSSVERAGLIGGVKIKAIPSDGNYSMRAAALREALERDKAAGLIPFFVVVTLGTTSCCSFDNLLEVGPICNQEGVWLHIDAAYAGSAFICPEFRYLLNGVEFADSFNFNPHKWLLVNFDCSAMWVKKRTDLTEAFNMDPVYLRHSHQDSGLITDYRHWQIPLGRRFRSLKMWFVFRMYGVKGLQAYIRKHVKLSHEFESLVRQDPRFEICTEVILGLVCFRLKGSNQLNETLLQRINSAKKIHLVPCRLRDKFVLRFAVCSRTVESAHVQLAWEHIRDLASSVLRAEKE
Method: The pharmacological effect of benserazide is the inhibition of DOPA decarboxylase. [1-^13C]DOPA (see Production Example 1) which is a substrate for DOPA decarboxylase is provided as a pharmacological effect diagnostic reagent and a screening reagent. Comparison was made in the [1-^13C]DOPA breath test on rats which were administered intraperitoneally with benserazide hydrochloride (Sigma) at a dose of 50 mg/kg three times (i.e., in the morning and evening of the day before the [1-^13C]DOPA breath test and 30 minutes before the breath test was started on the day of the test) (administration group) and rats without administration (control group).
The rats of the administration group and the control group which had been fasted overnight were fixed supinely under anesthesia. […] When the CO2 concentration stabilized, [1-^13C]DOPA was administered at a dose of 50 mg/kg through the femoral vein.
Output data from the ^13CO2 analyzer were AD-converted and input to a personal computer (Apple Power Macintosh 8500). […]
Δ^13C (‰) was calculated from the ^13C level in the exhaled CO2 at each time point (^13Ctmin) and the ^13C level in the standard CO2 (^13Cstd) according to the following equation: Δ^13C(‰)=[(^13Ctmin−^13C0min)/^13Cstd]×1000

[3] = test system: pancreatic protease; assay: Bz-Arg-[1-13C]Ala breath test; settings: rats
Method: The pharmacological effect of camostat mesylate is the inhibition of pancreatic protease. Bz-Arg-[1-^13C]Ala (see Production Example 3) which is a substrate for pancreatic protease is provided as a pharmacological effect diagnostic reagent and a screening reagent. […] The results of the Bz-Arg-[1-^13C]Ala breath test were as follows: in the both groups, the Δ^13C increased linearly until at the time point of 15 minutes after the administration; twenty minutes after the administration, the Δ^13C reached 41.29±7.49‰ in the control group (n=3), while the Δ^13C reached 27.64±4.86‰ in the administration group (n=3); thus, the Δ^13C decreased in the administration group (FIG. 7). From the results, it was confirmed that the function of the target enzyme for camostat mesylate was inhibited under the camostat mesylate administration conditions of the present example.

SMILES: C[C@H]1O[C@H](O[C@H]2[C@H](O)[C@@H](O)[C@@H](O[C@H]3[C@H](O)[C@@H](O)C(O)O[C@@H]3CO)O[C@@H]2CO)[C@H](O)[C@@H](O)[C@@H]1N[C@H]1C=C(CO)[C@@H](O)[C@H](O)[C@H]1O (stereo partly shown) [acarbose]
- Δ13C in 20 minutes ([1]; acarbose 2 mg/kg oral concurrently with Glc-[U-13C]Glc 25 mg/kg oral): 37.06 ±0.16 ‰
- Δ13C in 20 minutes ([1]; acarbose 4 mg/kg oral concurrently with Glc-[U-13C]Glc 25 mg/kg oral): 26.01 ±0.38 ‰
- Δ13C in 20 minutes ([1]; acarbose 10 mg/kg oral concurrently with Glc-[U-13C]Glc 25 mg/kg oral): 9.86±0.66 ‰

- inhibition at 50 mg/kg ([2]; rat, ip, benserazide 50 mg/kg i.p. three times, [1-13C]DOPA breath test, read-out: inhibition of the function of the target enzyme): ~100%
- Δ13C (degree of increase of the 13C level in exhaled CO2) ([2]; benserazide hydrochloride 50 mg/kg i.p. three times, [1-13C]DOPA 50 mg/kg femoral vein, 20 minutes after the administration): about 5 ‰
SMILES: NC(CO)C(=O)NNCc1ccc(O)c(O)c1O (stereo not shown) [benserazide, benserazide hydrochloride]

SMILES: CN(C)C(=O)COC(=O)Cc1ccc(OC(=O)c2ccc(NC(=N)N)cc2)cc1 [camostat mesylate]
- function of the target enzyme ([3]; camostat mesylate 20 mg/kg oral): inhibited
- Δ13C twenty minutes after the administration ([3]; camostat mesylate 20 mg/kg oral concurrently with Bz-Arg-[1-13C]Ala 12.2 mg/kg oral, n=3): 27.64±4.86 ‰
